Experiment [1] addresses T1, stromelysin-1 catalytic domain (SCD) (Homo sapiens, UniProt P08254). The settings on record: in Tris–HCl, not corrected for proton transfer; cited from earlier work.
The target of experiment [2] is T1, stromelysin-1 catalytic domain (SCD). The experiment in a line: Isothermal titration calorimetry of ligand binding.

T1 sequence (P08254 100-272 limits assumed, species assumed): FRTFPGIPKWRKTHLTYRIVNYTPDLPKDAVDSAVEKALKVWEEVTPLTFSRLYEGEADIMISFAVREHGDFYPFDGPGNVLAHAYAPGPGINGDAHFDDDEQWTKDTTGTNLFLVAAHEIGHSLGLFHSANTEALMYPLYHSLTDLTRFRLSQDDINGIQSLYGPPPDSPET

Turning to `Oc1ccccc1` [phenol], the ΔHobs in experiment [1] was -4.7 kcal/mol.

Consider `CC(=O)NO` [Compound 8, acetohydroxamic acid], for which the “ΔG^0” value in experiment [2] (ITC, pH 7.5, 3% DMSO) was -2.4 ± 0.3 kcal/mol. For the same compound, the ΔHbind0 in experiment [2] (ITC, pH 7.5, 3% DMSO, corrected for proton transfer) was -2.3 ± 0.2 kcal/mol. In experiment [2] (from titrations at 15, 25 and 37 °C, by regression), this compound displayed a ΔCP of −67 ± 24 cal mol^−1 K^−1.

The values above are taken from article PMC3763901 (Bioorganic & medicinal chemistry letters, 2012).
